Results from patent US12268691B2 (Sinopia Biosciences, Inc., priority 2016, dated 2025).

Columns and labels:
[1] = test system: 433 gene transcriptomic signature; conditions: 10 uM, MCF7 cells; FIG. 3
CYP1A2 = biological target: T1, CYP1A2 (Homo sapiens, UniProt P05177); conditions: cited from earlier work
T1 sequence (P05177 1-516): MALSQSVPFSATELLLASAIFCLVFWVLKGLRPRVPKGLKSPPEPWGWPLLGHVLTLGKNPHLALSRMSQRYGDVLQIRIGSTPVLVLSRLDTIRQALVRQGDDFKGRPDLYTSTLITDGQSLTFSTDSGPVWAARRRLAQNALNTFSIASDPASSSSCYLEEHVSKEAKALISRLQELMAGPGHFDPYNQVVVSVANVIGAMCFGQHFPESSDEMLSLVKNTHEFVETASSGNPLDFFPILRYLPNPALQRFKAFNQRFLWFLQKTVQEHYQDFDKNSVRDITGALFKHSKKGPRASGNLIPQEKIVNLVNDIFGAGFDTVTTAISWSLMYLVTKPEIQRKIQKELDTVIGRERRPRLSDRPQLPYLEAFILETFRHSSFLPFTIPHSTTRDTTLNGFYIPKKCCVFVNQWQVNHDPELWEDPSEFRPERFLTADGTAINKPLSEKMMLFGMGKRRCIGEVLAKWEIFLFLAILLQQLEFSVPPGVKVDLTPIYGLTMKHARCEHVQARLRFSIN

extrapyramidal syndrome propensity score, compound alone [1]: much higher propensity than risperidone
SMILES: O=C(CCCN1CCC(O)(c2ccc(Cl)cc2)CC1)c1ccc(F)cc1 [haloperidol]
interaction with CYP1A2 (CYP1A2): has not been shown to interact with haloperidol
